Reference: patent US20230111914A1, “SYNTHETIC TRITERPENOIDS WITH NITROGEN-BASED SUBSTITUENTS AT C-17 AND METHODS OF USE THEREOF” (REATA PHARMACEUTICALS, INC., priority 2019, published 2023)
Several values for one entry are separate records, joined by “and”; a condition that tells them apart may be missing. Equal values may be shown once. Read-outs that look alike come from different tables or passages of the source. Marks after values point to notes of the source that are not given here.

How the values were obtained:
[1] = tested on: IFNγ-induced NO production in RAW 264.7 cells; assay: Nitric oxide suppression assay (IFNγ-induced NO production, Griess nitrite readout); assay type: cell-based, mouse; conditions: for IC50: Mus musculus, RAW264.7, RAW 264.7 cells, read-out: NO IC50
[2] = tested on: AREc32 reporter cell line (luciferase reporter under eight copies of the rat GSTA2 ARE sequence); assay: AREc32 luciferase reporter activation; assay type: cell-based, human; conditions: for EC (2-fold): Homo sapiens, Arec32, concentration that increases the luminescence signal 2-fold above vehicle, 19 h treatment, read-out: AREc32 EC2X (Mean ± SD); for AREc32 Relative to CC in Same Experiment (Mean ± SD): average of ratios from three replicate experiments
CYP3A4 = molecular target: T1, CYP3A4 (Homo sapiens, UniProt P08684); assay: CYP3A4 (midazolam) inhibition in human liver microsomes; assay type: in vitro ADME; conditions: probe midazolam; human liver microsomes 0.1 mg/mL, midazolam substrate, 1 μM test compound, 37° C. 10 min
T1 construct: containing 0.1 mg/mL human liver microsomes; from tissue; host or cells: human liver microsomes
Description: Methods. Several compounds were evaluated for CYP3A4 (midazolam) inhibition in human liver microsomes at 1 μM. CYP3A4 inhibition was tested using an in vitro assay as generally described in Dierks et al. (Drug Metabolism Deposition, 29:23-29, 2001, which is incorporated by reference herein). Each sample, containing 0.1 mg/mL human liver microsomes, […] as substrate, and 1 μM of test compound, was incubated at 37° C. for 10 min. Following incubation, the metabolite 1-hydroxymidazolam was measured using HPLC-MS/MS. Peak areas corresponding to the metabolite of the substrate were recorded. The percent of control activity was then calculated by comparing the peak area obtained in the presence of the test compound to that obtained in the absence of the test compound. Subsequently, the percent inhibition was calculated by subtracting the percent control activity from 100 for each compound.

[3] = 2 h pretreatment, 20 ng/mL interferon gamma 24 h, average of trials per footnote

T1 sequence (P08684 whole entry): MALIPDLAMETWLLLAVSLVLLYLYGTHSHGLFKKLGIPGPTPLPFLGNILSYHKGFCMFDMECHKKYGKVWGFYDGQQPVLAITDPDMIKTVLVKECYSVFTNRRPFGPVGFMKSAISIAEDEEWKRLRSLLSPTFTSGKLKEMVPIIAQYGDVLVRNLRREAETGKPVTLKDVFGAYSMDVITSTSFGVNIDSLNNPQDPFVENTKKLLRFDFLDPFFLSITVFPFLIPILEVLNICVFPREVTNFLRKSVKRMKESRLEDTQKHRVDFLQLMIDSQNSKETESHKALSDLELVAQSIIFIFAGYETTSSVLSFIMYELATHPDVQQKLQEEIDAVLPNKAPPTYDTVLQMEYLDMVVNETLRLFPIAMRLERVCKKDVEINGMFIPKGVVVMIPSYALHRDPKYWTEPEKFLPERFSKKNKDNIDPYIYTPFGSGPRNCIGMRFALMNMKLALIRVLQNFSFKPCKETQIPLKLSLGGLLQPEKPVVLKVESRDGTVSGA

Compound | NO IC50 Rel. to RTA 402 [1] | times more active (NO IC50) than 63236 relative to RTA 402 [1] | times more active (NO IC50) than 63866 relative to RTA 402 [1] | IC50 [1, 3] | AREc32 EC2X Relative to RTA 402 (Mean ± SD) [2] | EC (2-fold) [2] | inhibition at 10 min, 1 µM (CYP3A4) | AREc32 Relative to CC in Same Experiment (Mean ± SD) ([2]; comparison compound CC2) | times more active (NO IC50) than CC2 relative to RTA 402 [1] | IC50 ([1]; interferon gamma) | AREc32 Relative to CC in Same Experiment (Mean ± SD) ([2]; comparison compound CC4) | times more active (NO IC50) than CC4 relative to RTA 402 [1] | times more active (NO IC50) than 63229 relative to RTA 402 [1]
CC1(C)CC[C@]2(CNC(=O)C3CC3)CC[C@]3(C)[C@H](C(=O)C=C4[C@@]5(C)C=C(C#N)C(=O)C(C)(C)[C@@H]5CC[C@]43C)[C@@H]2C1 [Compound T4] | 0.26 fold and 0.26 ± 0.08^h fold | more than 220 times | roughly 4.5 times | 0.51 nM | 0.3 ± 0.08^b fold | 0.0032 ± 0.00032 µM | 30.7% | – | – | – | – | – | –
CC1(C)CC[C@]2(CN3CCC3=O)CC[C@]3(C)[C@H](C(=O)C=C4[C@@]5(C)C=C(C#N)C(=O)C(C)(C)[C@@H]5CC[C@]43C)[C@@H]2C1 [Compound T10] | 0.45 ± 0.08^g fold | – | – | 1.12 ± 0.44 nM | 0.5 ± 0.13^c fold | 0.0052 ± 0.00249 µM | 33.2% | – | – | – | – | – | –
CC1(C)CC[C@]2(CN3CCCC3=O)CC[C@]3(C)[C@H](C(=O)C=C4[C@@]5(C)C=C(C#N)C(=O)C(C)(C)[C@@H]5CC[C@]43C)[C@@H]2C1 [Compound T11] | 0.58 ± 0.18^f fold | – | – | 1.08 ± 0.44 nM | 0.5 ± 0.08^d fold | 0.0067 ± 0.0017 µM | 12.5% | – | – | – | – | – | –
CC1(C)CC[C@]2(Cn3ccnc3)CC[C@]3(C)[C@H](C(=O)C=C4[C@@]5(C)C=C(C#N)C(=O)C(C)(C)[C@@H]5CC[C@]43C)[C@@H]2C1 [Compound T17] | – | – | – | – | 1.6 ± 0.22^g fold | 0.0162 ± 0.00085 µM | 31.8% | 1.009 ± 0.052 | – | – | – | – | –
CC1(C)CC[C@]2(Cn3cnnn3)CC[C@]3(C)[C@H](C(=O)C=C4[C@@]5(C)C=C(C#N)C(=O)C(C)(C)[C@@H]5CC[C@]43C)[C@@H]2C1 [Compound T18] | 0.76 fold and 0.76 ± 0.10^e fold | – | – | 0.92 nM | 0.6 ± 0.05^g fold | 0.0057 ± 0.00044 µM | 46.5% | 0.356 ± 0.015 | more than twice as active | – | – | – | –
CC1(C)CC[C@]2(Cn3ccnn3)CC[C@]3(C)[C@H](C(=O)C=C4[C@@]5(C)C=C(C#N)C(=O)C(C)(C)[C@@H]5CC[C@]43C)[C@@H]2C1 [Compound T19] | 0.93 fold and 0.93 ± 0.22^e fold | – | – | 1.11 nM | – | 0.0084 ± 0.00126 µM | 33.8% | 0.522 ± 0.052 | roughly 1.6 times | 1.11 nM | – | – | –
CC1(C)CC[C@]2(Cn3cccn3)CC[C@]3(C)[C@H](C(=O)C=C4[C@@]5(C)C=C(C#N)C(=O)C(C)(C)[C@@H]5CC[C@]43C)[C@@H]2C1 [Compound T20] | 1.93 ± 0.41^e fold | – | – | 3.28 ± 0.32 nM | – | 0.0153 ± 0.00084 µM | 13.2% | 0.954 ± 0.101 | – | – | – | – | –
CC1(C)CC[C@]2(Cn3cncn3)CC[C@]3(C)[C@H](C(=O)C=C4[C@@]5(C)C=C(C#N)C(=O)C(C)(C)[C@@H]5CC[C@]43C)[C@@H]2C1 [Compound T21] | 0.57 ± 0.07^e fold | – | – | 1.18 ± 0.21 nM | 1.1 ± 0.20^g fold | 0.0105 ± 0.00165 µM | 18.9% | 0.649 ± 0.070 | – | – | – | – | –
CC1(C)CC[C@]2(n3cncn3)CC[C@]3(C)[C@H](C(=O)C=C4[C@@]5(C)C=C(C#N)C(=O)C(C)(C)[C@@H]5CC[C@]43C)[C@@H]2C1 [Compound T33] | 1.35 ± 0.26^d fold | – | – | 5.62 ± 1.81 nM | 1.2 ± 0.18^f fold | 0.0136 ± 0.00131 µM | 49% | – | – | – | 0.484 ± 0.060 | – | –
CC1(C)CC[C@]2(n3ccnn3)CC[C@]3(C)[C@H](C(=O)C=C4[C@@]5(C)C=C(C#N)C(=O)C(C)(C)[C@@H]5CC[C@]43C)[C@@H]2C1 [Compound T35] | 0.64 fold and 0.64 ± 0.04^e fold | – | – | 1.3 nM | 0.6 ± 0.18^f fold | 0.0071 ± 0.00073 µM | 41.7% | – | – | – | 0.262 ± 0.020 | ~4 times | –
CC1(C)CC[C@]2(n3cnnn3)CC[C@]3(C)[C@H](C(=O)C=C4[C@@]5(C)C=C(C#N)C(=O)C(C)(C)[C@@H]5CC[C@]43C)[C@@H]2C1 [Compound T36] | 0.77 fold and 0.77 ± 0.16^e fold | – | – | 1.96 nM | 0.5 ± 0.13^f fold | 0.0056 ± 0.00059 µM | 52.8% | – | – | – | 0.191 ± 0.009 | roughly 3.1 times | greater than 98.5 times
CC1(C)CC[C@]2(n3ccnc3)CC[C@]3(C)[C@H](C(=O)C=C4[C@@]5(C)C=C(C#N)C(=O)C(C)(C)[C@@H]5CC[C@]43C)[C@@H]2C1 [Compound T37] | 1.37 ± 0.26^e fold | – | – | 3.22 ± 1.52 nM | 2.1 ± 0.50^f fold | 0.0243 ± 0.0027 µM | 86.5% | – | – | – | 0.878 ± 0.094 | – | –
CNC(=O)c1cn([C@]23CCC(C)(C)C[C@H]2[C@H]2C(=O)C=C4[C@@]5(C)C=C(C#N)C(=O)C(C)(C)[C@@H]5CC[C@@]4(C)[C@]2(C)CC3)nn1 [Compound T41] | 1.19 ± 0.22^d fold | – | – | 4.96 ± 1.58 nM | 0.8 ± 0.16^f fold | 0.0094 ± 0.00135 µM | 17.1% | – | – | – | 0.320 ± 0.037 | – | –
CC1(C)CC[C@]2(n3cc(CF)nn3)CC[C@]3(C)[C@H](C(=O)C=C4[C@@]5(C)C=C(C#N)C(=O)C(C)(C)[C@@H]5CC[C@]43C)[C@@H]2C1 [Compound T43] | 0.66 fold and 0.66 ± 0.09^d fold | – | – | 2.68 nM | 0.7 ± 0.15^f fold | 0.0085 ± 0.00055 µM | 17% | – | – | – | 0.299 ± 0.015 | roughly 3.7 times | –
CC1(C)CC[C@]2(n3cc(C(F)F)nn3)CC[C@]3(C)[C@H](C(=O)C=C4[C@@]5(C)C=C(C#N)C(=O)C(C)(C)[C@@H]5CC[C@]43C)[C@@H]2C1 [Compound T44] | 1.07 ± 0.11^d fold | – | – | 4.39 ± 0.73 nM | 0.9 ± 0.15^f fold | 0.0106 ± 0.00083 µM | 29.1% | – | – | – | 0.387 ± 0.037 | – | –
Cc1cn(C[C@]23CCC(C)(C)C[C@H]2[C@H]2C(=O)C=C4[C@@]5(C)C=C(C#N)C(=O)C(C)(C)[C@@H]5CC[C@@]4(C)[C@]2(C)CC3)nn1 [Compound T48] | 1.19 fold and 1.19 ± 0.18^e fold | – | – | 2.5 nM | 1.3 ± 0.21^g fold | 0.0129 ± 0.00143 µM | 29.8% | 0.802 ± 0.050 | roughly 1.3 times | – | – | – | –
COC(=O)[C@]12CCC(C)(C)C[C@H]1[C@H]1C(=O)C=C3[C@@]4(C)C=C(C#N)C(=O)C(C)(C)[C@@H]4CC[C@@]3(C)[C@]1(C)CC2 [RTA 402, reference compound] | 1.00 ± 0.00 fold | – | – | 2.58 ± 1.19 nM | 1.00 fold | 0.0118 ± 0.0029 µM | – | – | – | – | – | – | –
